Assays:
Type in all cases: binding
[1] = target: T1, Quinolinate phosphoribosyltransferase (HsQPRT) (Homo sapiens, UniProt Q15274); assay: ITC
T1 construct: gene QPRT; full-length HsQPRT (residues 1–297), hexamer

[2] = target: T2, Quinolinate phosphoribosyltransferase (HsQPRT) NΔ9 mutant (Homo sapiens, UniProt Q15274, NΔ9); assay: ITC
T2 construct: gene QPRT; NΔ9, N-terminal truncated (helix α1 removed), dimer

[3] = target: T1, Quinolinate phosphoribosyltransferase (HsQPRT); assay: ITC and crystal structure ([…] Å)
[4] = target: T1, Quinolinate phosphoribosyltransferase (HsQPRT); assay: co-crystal structure ([…] Å)

T1 sequence (Q15274 whole entry, the tested form may be a part): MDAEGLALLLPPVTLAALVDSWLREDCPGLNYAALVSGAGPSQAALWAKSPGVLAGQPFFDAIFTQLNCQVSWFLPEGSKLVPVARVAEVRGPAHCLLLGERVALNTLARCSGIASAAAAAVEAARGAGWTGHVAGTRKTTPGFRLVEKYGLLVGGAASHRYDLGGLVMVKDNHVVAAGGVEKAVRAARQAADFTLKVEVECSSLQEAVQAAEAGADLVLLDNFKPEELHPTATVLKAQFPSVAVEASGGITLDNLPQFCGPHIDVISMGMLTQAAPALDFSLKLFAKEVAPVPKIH
T2 sequence (Q15274 10-297, stated change not applied): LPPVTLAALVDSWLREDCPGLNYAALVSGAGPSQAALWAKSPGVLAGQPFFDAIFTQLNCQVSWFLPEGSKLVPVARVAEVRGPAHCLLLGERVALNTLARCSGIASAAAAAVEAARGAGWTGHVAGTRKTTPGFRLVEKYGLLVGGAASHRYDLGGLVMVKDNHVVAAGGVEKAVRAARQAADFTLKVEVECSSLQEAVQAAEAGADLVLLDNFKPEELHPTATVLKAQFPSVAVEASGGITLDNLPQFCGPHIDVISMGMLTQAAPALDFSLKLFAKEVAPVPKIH

Question: How did the Kd [1] turn out when O=C(O)c1ccccc1C(=O)O [phthalic acid] was run?
Answer: 5.2 ± 0.2 µM

Question: What does the source list for O=C(O)c1cccnc1C(=O)O [QA, quinolinic acid]?
Answer: Kd [2]: 401 ± 56 µM; Kd [3]: 4.8 ± 0.4 µM

Question: For O=C(O)c1ccc[n+]([C@@H]2O[C@H](COP(=O)([O-])O)[C@@H](O)[C@H]2O)c1 [NAMN, nicotinic acid mononucleotide], which “co-crystal structure (2.6 Å)” value [4] is on record?
Answer: clear density for two loops (loops L and O) and the substrate molecules (QA and NAMN) bound to the protein

Source: PMC4726147, “Structural Insights into the Quaternary Catalytic Mechanism of Hexameric Human Quinolinate Phosphoribosyltransferase, a Key Enzyme in de novo NAD Biosynthesis” (Scientific Reports, 2016)
